Laboratory results as given in PubChem BioAssay AID248 (DTP/NCI, 2004).
Toxic doses and inconclusive results are not listed. Cut-off read from the data, not from the text of the source: active = T/C of 150% or more; inactive = T/C below 125%.

Tested on: L1210 leukemia ip in BDF1 mice, survival T/C
Assay: NCI In Vivo Anticancer Drug Screen. Data for tumor model L1210 Leukemia (intraperitoneal) in B6D2F1 (BDF1) mice
Details: endpoint: mean survival time, higher = longer survival
In short: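 Tumor cells were implanted, animals were treated, and survival was followed. The result divides the treated measurement by the vehicle-control measurement.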

[1] = dose: 100.0 mg/kg/injection, schedule: Q04DX003 (ip), vehicle: Klucel (hydroxypropylcellulose) (HPC)
[2] = dose: 200.0 mg/kg/injection, schedule: Q04DX003 (ip), vehicle: Klucel (hydroxypropylcellulose) (HPC)
[3] = dose: 400.0 mg/kg/injection, schedule: Q04DX003 (ip), vehicle: Klucel (hydroxypropylcellulose) (HPC)
[4] = dose: 100.0 mg/kg/injection, schedule: Q01DX001 (ip), vehicle: saline

Measured: T/C

CP(=O)(CCP(=O)(c1ccccc1)c1ccccc1)c1ccccc1 (configuration not stated)
inactive: dose: 25.0 mg/kg/injection, schedule: Q04DX002 (ip), vehicle: saline with Tween-80 94 % of control | dose: 50.0 mg/kg/injection, schedule: Q04DX002 (ip), vehicle: saline with Tween-80 106 % of control | dose: 100.0 mg/kg/injection, schedule: Q04DX002 (ip), vehicle: saline with Tween-80 97 % of control

N=C1N=C(N)C(CCCOc2cc(Cl)ccc2Cl)(CCCOc2cc(Cl)ccc2Cl)C(N)=N1
inactive: [1] 94 % of control | [2] 106 % of control | [3] 87 % of control

O=C(Nc1ccccc1)OC(C[N+](=O)[O-])C(Cl)(Cl)Cl (configuration not stated)
inactive: dose: 75.0 mg/kg/injection, schedule: Q01DX001 (ip), vehicle: carboxymethylcellulose (CMC) 98 % of control

CCC/C(=N/OC(=O)N(C)C)c1ccccc1
inactive: dose: 100.0 mg/kg/injection, schedule: Q01DX001 (ip), vehicle: carboxymethylcellulose (CMC) 97 % of control | dose: 200.0 mg/kg/injection, schedule: Q01DX001 (ip), vehicle: carboxymethylcellulose (CMC) 98 % of control | dose: 400.0 mg/kg/injection, schedule: Q01DX001 (ip), vehicle: carboxymethylcellulose (CMC) 101 % of control

CS(=O)(=O)CC(=O)c1ccccc1
inactive: dose: 37.5 mg/kg/injection, schedule: Q01DX009 (ip), vehicle: saline with Tween-80 87 % of control | dose: 75.0 mg/kg/injection, schedule: Q01DX009 (ip), vehicle: saline with Tween-80 90 % of control | dose: 100.0 mg/kg/injection, schedule: Q04DX003 (ip), vehicle: saline with Tween-80 95 % of control | dose: 150.0 mg/kg/injection, schedule: Q01DX009 (ip), vehicle: saline with Tween-80 87 % of control | dose: 200.0 mg/kg/injection, schedule: Q04DX003 (ip), vehicle: saline with Tween-80 96 % of control

COc1ccc(/C=C(/C)[N+](=O)[O-])cc1OC
inactive: dose: 50.0 mg/kg/injection, schedule: Q01DX001 (ip), vehicle: Klucel (hydroxypropylcellulose) (HPC) 98 % of control | dose: 50.0 mg/kg/injection, schedule: Q01DX009 (ip), vehicle: saline with Tween-80 91 % of control | dose: 100.0 mg/kg/injection, schedule: Q01DX001 (ip), vehicle: Klucel (hydroxypropylcellulose) (HPC) 94 % of control | [4] 93 % of control | dose: 100.0 mg/kg/injection, schedule: Q01DX009 (ip), vehicle: saline with Tween-80 115 % of control | [1] 97 % of control | dose: 200.0 mg/kg/injection, schedule: Q01DX001 (ip), vehicle: Klucel (hydroxypropylcellulose) (HPC) 103 % of control | dose: 200.0 mg/kg/injection, schedule: Q01DX009 (ip), vehicle: saline with Tween-80 100 % of control | [2] 102 % of control | dose: 400.0 mg/kg/injection, schedule: Q01DX001 (ip), vehicle: saline 98 % of control | [3] 97 % of control

C=COCCCCOC=C
inactive: [1] 113 % of control | [2] 105 % of control | [3] 105 % of control

Nc1nc(N)c2cc(CNc3ccc(C(=O)NC(CC(=O)O)CC(=O)O)cc3)ccc2n1
inactive: dose: 6.25 mg/kg/injection, schedule: Q01DX009 (ip), vehicle: saline 123 % of control | dose: 50.0 mg/kg/injection, schedule: Q01DX001 (ip), vehicle: saline 109 % of control | dose: 50.0 mg/kg/injection, schedule: Q01DX009 (ip), vehicle: carboxymethylcellulose (CMC) 117 % of control | [4] 114 % of control | dose: 100.0 mg/kg/injection, schedule: Q01DX009 (ip), vehicle: carboxymethylcellulose (CMC) 105 % of control | dose: 100.0 mg/kg/injection, schedule: Q01DX009 (ip), vehicle: other 101 % of control | dose: 100.0 mg/kg/injection, schedule: Q01DX009 (ip), vehicle: saline 103 % of control | dose: 200.0 mg/kg/injection, schedule: Q01DX009 (ip), vehicle: carboxymethylcellulose (CMC) 88 % of control | dose: 200.0 mg/kg/injection, schedule: Q01DX009 (ip), vehicle: other 86 % of control | dose: 200.0 mg/kg/injection, schedule: Q01DX009 (ip), vehicle: saline 97 % of control | dose: 300.0 mg/kg/injection, schedule: Q01DX001 (ip), vehicle: saline 122 % of control | dose: 400.0 mg/kg/injection, schedule: Q01DX001 (ip), vehicle: other 107 % of control
active: dose: 6.3 mg/kg/injection, schedule: Q01DX009 (ip), vehicle: carboxymethylcellulose (CMC) 167 % of control | dose: 10.0 mg/kg/injection, schedule: Q01DX009 (ip), vehicle: other 157 % of control | dose: 12.5 mg/kg/injection, schedule: Q01DX009 (ip), vehicle: carboxymethylcellulose (CMC) 152 % of control | dose: 25.0 mg/kg/injection, schedule: Q01DX009 (ip), vehicle: carboxymethylcellulose (CMC) 180 % of control | dose: 25.0 mg/kg/injection, schedule: Q01DX009 (ip), vehicle: other 158 % of control | dose: 50.0 mg/kg/injection, schedule: Q01DX009 (ip), vehicle: saline 216 % of control | dose: 100.0 mg/kg/injection, schedule: Q01DX001 (ip), vehicle: other 196 % of control | dose: 133.0 mg/kg/injection, schedule: Q01DX001 (ip), vehicle: other 175 % of control | dose: 200.0 mg/kg/injection, schedule: Q01DX001 (ip), vehicle: other 208 % of control | dose: 300.0 mg/kg/injection, schedule: Q01DX001 (ip), vehicle: other 166 % of control | dose: 600.0 mg/kg/injection, schedule: Q01DX001 (ip), vehicle: saline 152 % of control
